Assay results published in paper PMC9695908, “Potent Activation of Human but Not Mouse TRPA1 by JT010” (International Journal of Molecular Sciences, 2022).

Target: T1, human TRPA1 (hTRPA1) (Homo sapiens, UniProt O75762)
T1 construct: wild-type hTRPA1 in HEK cells
Test: Fura-2 Ca2+ imaging and whole-cell patch clamp in HEK-hTRPA1 cells; C621S and F669M mutants reduce response
Format: cell-based

T1 sequence (O75762 whole entry): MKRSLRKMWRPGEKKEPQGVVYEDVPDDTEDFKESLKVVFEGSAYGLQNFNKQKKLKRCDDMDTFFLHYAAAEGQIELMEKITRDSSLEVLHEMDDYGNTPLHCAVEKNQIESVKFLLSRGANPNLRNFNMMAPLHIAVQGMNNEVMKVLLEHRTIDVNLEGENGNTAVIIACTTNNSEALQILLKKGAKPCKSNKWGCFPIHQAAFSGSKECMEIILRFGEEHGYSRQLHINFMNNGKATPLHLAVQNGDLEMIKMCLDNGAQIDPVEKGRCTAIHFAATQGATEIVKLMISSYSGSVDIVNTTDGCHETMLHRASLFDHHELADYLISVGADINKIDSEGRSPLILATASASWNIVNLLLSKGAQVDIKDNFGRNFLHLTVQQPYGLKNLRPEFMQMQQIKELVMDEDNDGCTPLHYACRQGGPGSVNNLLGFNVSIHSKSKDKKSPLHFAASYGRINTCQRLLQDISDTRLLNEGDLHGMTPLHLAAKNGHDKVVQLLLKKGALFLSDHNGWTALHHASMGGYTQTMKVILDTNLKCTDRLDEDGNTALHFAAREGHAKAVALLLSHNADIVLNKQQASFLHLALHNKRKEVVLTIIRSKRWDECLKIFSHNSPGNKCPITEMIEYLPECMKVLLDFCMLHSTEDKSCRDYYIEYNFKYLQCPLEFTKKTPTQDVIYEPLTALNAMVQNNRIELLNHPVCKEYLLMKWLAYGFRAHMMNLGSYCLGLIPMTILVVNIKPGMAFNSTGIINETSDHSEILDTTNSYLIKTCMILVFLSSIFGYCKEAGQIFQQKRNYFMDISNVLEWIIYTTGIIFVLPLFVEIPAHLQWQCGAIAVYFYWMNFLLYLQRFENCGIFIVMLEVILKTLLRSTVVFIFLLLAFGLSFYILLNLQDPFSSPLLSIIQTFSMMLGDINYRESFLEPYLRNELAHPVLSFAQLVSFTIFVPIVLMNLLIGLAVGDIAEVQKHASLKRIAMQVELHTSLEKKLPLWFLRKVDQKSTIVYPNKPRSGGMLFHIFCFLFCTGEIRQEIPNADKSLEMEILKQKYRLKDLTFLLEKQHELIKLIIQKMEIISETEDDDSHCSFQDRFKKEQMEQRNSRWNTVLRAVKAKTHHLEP

SMILES: COCCCN(C(=O)CCl)c1nc(-c2ccc(OC)cc2)cs1 [JT010]
- EC50: ~10 nM
